# Entries after “also recorded” stand apart in the source; their conditions may differ. Like-named read-outs stand apart in the source and are kept apart here.
# What was measured:
# [1] = Photochemiluminescence (PCL) method, ACL kit; assay type: biochemical; details: pure compound; Trolox equivalents; mean ± SE of three experiments
# Experimental: (§1) PCL assay, based on the methodology of Popov and Lewin[23], was used to measure the antioxidant activity of synthesized compounds with a Photochem® apparatus (Analytik Jena, Leipzig, Germany) against superoxide anion radicals generated from luminol, a photosensitizer, when exposed to UV light (Double Bore® phosphor lamp, output 351 nm, 3 mWatt/cm^2). The antioxidant activity was measured using ACL (Antioxidant Capacity of Liposoluble substance) kit provided by the manufacturer designed to measure the antioxidant activity of lipophilic compounds[24]. […] The areas under the curves were calculated using the PCLsoft control and analysis software. […] This inhibition was used as a parameter for quantification and related to the decrease in the integral of PCL intensities caused by varying concentrations of Trolox. The observed inhibition of the signal was plotted against the concentration of Trolox added to the assay medium. The concentration of the added tested compounds was such that the generated luminescence during the 180-s sampling interval fell within the limits of the standard curve. The antioxidant assay was carried out in triplicate for each sample, and 20 μL of the diluted compound in HPLC-grade methanol (ACL) was sufficient to correspond to the standard curve.
# [2] = Ferric reducing antioxidant of potency (FRAP) assay; assay type: biochemical; details: Trolox equivalents; mean ± SE of three experiments
# Experimental: The ferric reducing ability of each standard solution was measured according to a modified protocol described by Guihua et al.[26]. The reagent for analysis was freshly prepared by mixing the following solutions in the reported ratio 10/1/1 (v:v:v) (i) 0.1 M acetate buffer pH 3.6, (ii) TPTZ (2,4,6-Tri(2-pyridyl)-s-triazine) 10 mmol/L in 40 mmol/HCl, (iii) ferric chloride 20 mmol/L. To a 1.9 mL of reagent were added 0.1 mL of sample proper diluted or solvent when blank was performed. Readings at fixed wavelength of the absorption maximum (593 nm) were done after 30 min, using a UV-VIS spectrophotometer; it was evaluated the absorbance increase of sample solution against the absorbance of blank reaction as parameter to calculate the antioxidant activity. The antioxidant activity is given as Trolox activity since this standard was used to perform the calibration curves.
# [3] = 1,1-Diphenyl-2-picryl-hydrazyl radical (DPPH) assay; assay type: biochemical; details: Trolox equivalents; mean ± SE of three experiments
# Experimental: To 1.5 mL DPPH methanolic solution (0.5 mM) was added 0.750 mL of sample solution proper diluted. Samples absorbance measurements were evaluated with a UV-VIS spectrophotometer (Thermo Spectronic Helios γ, Cambridge, UK) at fixed wavelength of 517 nm. Blank sample was prepared adding methanol to DPPH solution and Trolox was used as standard reference to achieve a calibration curve. The radical-scavenging activity is expressed as inhibition ratio of initial concentration of DPPH radical and is calculated according to the formula: Inhibition percentage (Ip) = [(AB-As)/AB]·100; where AB and As are, respectively, the absorbance values of blank reaction and of the tested sample[25].
# [4] = PCL antioxidant activity of finished formulations; assay type: biochemical; details: 3% (w/w) compound in O/W formulation
# Experimental: as §1
# It was decided to use a standard formulation oil in water (O/W).
# In particular, molecules with phenolic hydroxyl in the ortho position on the phenyl ring (4, 5, 9, 10 and 13) had better and higher UVA/UVB ratio and critical wavelength, although they have the SPF value less than lead compound. Formulation containing products 2 and 14, which have a phenolic hydroxyl at the para position on the phenyl ring, have shown good values in terms of SPF, greater UVA protection factor, critical wavelength and also higher UVA/UVB ratio than PBSA, but yet lower than the molecules containing hydroxyl on the phenyl ring in ortho. […] Compound 8 has lower SPF than 3, but higher than PBSA; in comparison with 3, molecules 8 and 12 presented higher UVA/UVB ratio and critical wavelength. Regarding compounds with three hydroxyls on phenyl ring, they have good UVA filtering parameters, their critical wavelengths are the highest and SPF is higher than PBSA for molecule 6, while SPF of 15 is slightly lower and decreases further in molecule 11. Thus, it can be observed that parameters are mainly influenced by the number and position of the hydroxyl groups on the phenyl ring rather than the substituent in the 5-position of benzimidazole. Concomitantly, all formulations were analyzed to assess whether the antioxidant power was maintained. […] In Table 4, the antioxidant activity, measured by PCL method, of finished formulations is reported; as it can be seen results were in agreement with that obtained testing the pure compounds. […] Formulations containing compounds 3, 8 and 12 presented highest antioxidant capabilities; these are followed, but with important decrease in antioxidant capacity, by formulations with compounds 6, […] and 15 that have three hydroxyl moieties on phenyl ring.
# NCTC-2544 cells = experiment: Phototoxicity / cellular photoprotection, UVA or UVB irradiation, MTT test; details: for % Cell survival UVA 20 J/cm^2 / % Cell survival UVB 0.5 J/cm^2 / % Cell survival UVB 1 J/cm^2: 50 μM, vs nonirradiated cells (100%), 48 h after irradiation; for phototoxic effect (cell survival vs irradiated control): NCTC-2544, UVA/UVB irradiation; for viability at 20 µM / viability at 50 µM: Homo sapiens, NCTC-2544, light or radiation study, 48 h; for cell survival in relation to the irradiated control: after UVB irradiation 1 J/cm^2
# Experimental: An immortalized, nontumorigenic cell line of human keratinocytes (NCTC-2544) was grown in a DMEM medium (Sigma-Aldrich Milan, Italy), supplemented with 115 units/mL of penicillin G, 115 μg/mL streptomycin, and 10% fetal calf serum (Invitrogen, Milan, Italy). Individual wells of a 96-well tissue culture microtiter plates (Falcon, Becton–Dickinson) were inoculated with 100 μL of complete medium containing 5 × 10^3 NCTC-2544. The plates were incubated at 37 °C in a humidified (5% CO2) incubator for 18 h prior to the experiments.
# Two HPW 125 Philips lamps, mainly emitting at 365 nm, were used for UVA irradiation experiments. The spectral irradiance of the source was 4.0 mWcm^−^2 as measured at the sample level by a Cole-Parmer Instrument Company radiometer (Niles, IL) equipped with a 365-CX sensor. One or two PL-S 9 W/12 Philips lamps (280–370 nm; peak at 315 nm) were used for UVB irradiation experiments. To restrict the incident radiation to the range 305–370 nm, a glass filter (Schott SWG-305) was used. Total energy was detected by the same equipped with a sensor (model CX-312).
# After medium removal, 100 μL of the drug solution, dissolved in DMSO and diluted with Hank’s Balanced Salt Solution (HBSS pH =7.2), was added to each well, incubated at 37 °C for 30 min, and then irradiated (20 J/cm^2 for UVA and 0.5 and 1 J/cm^2 for UVB). After irradiation, the solution was replaced with the medium and the plates were further incubated for 48 h. Cell viability was assayed by the MTT [(3–(4,5-dimethylthiazol-2-yl)-2,5 diphenyl tetrazolium bromide)] test as previously described by Mosmann[27].
# Molecules were verified for their photocytotoxicity in the same cell line; the cells were treated with 50 μM solutions of compound and after 30 min were irradiated with 20 J/cm^2 UVA or with UVB at two energy amounts: 0.5 J/cm^2 and 1 J/cm^2 UVB. […] After irradiation, the solution was replaced with growth medium and the cells were further incubated for 48 h, and then, cell viability was assessed by MTT assay. […] The phototoxicity of tested molecules was compared with the ratio of cell survival of irradiated keratinocytes without substance (IC = irradiated control).
# [5] = UV spectra: λmax and molar extinction coefficient; assay type: physicochemical; details: for λ max: aqueous solution at pH 7; for ɛ (molar extinction coefficient): aqueous solution at pH 7, at λ max, linear regression Lambert–Beer
# Experimental: Sun protection factor (SPF) is related to the UV absorption of the substances, so before including the molecules in cosmetic formulations we evaluated the wavelength of maximum absorption (λmax) and the molar extinction coefficient (ɛ) of each molecule in aqueous solution at pH 7. The UV spectra were recorded between 270 and 420 nm (20 nm higher and lower then UVA and UVB range) to verify the spectrum profile of the molecules within UVA and UVB region. UV spectrum of PBSA is an UVB filter and presents a λmax of 302 nm; after this peak, the absorbance fades going to higher wavelength until almost zero around 325 nm, and then, it provides no absorption in the UVA region. Molecules spectra overlapped for category according to the substituent in position 5 of the benzimidazole ring are shown in Figures 1, 2 and 3; PBSA spectrum is presented in all figures for comparison.
# From the spectra appears that the lambda maxima (Table 2) of the new molecules shifted toward higher wavelength and in general the range of absorption curve was wider than PBSA. Within a group of molecules, the batochromic shift was more marked for the molecules that have a hydroxyl moiety in position 2 of the phenyl ring (4, 5, 6, 9, 10, 11, 13 and […]); the effect of ortho substituted is known to produce this shift toward higher wavelength. Increasing the number of auxochrome groups on phenyl ring an increment in the absorption range occurred, compounds with three hydroxyl on the phenyl ring (6, 11, 15) had the broadest spectrum and their lambda maxima shifted at the highest wavelength compared to the other compounds. The absorption spectrum of molecules with the same number and position of hydroxyl seemed only slightly influenced by the substituent in position 5 of the benzimidazole ring. After having established the lambda maxima for every compound, solutions at different concentrations were prepared to calculate the molar extinction coefficient by means of linear regression and applying Lambert–Beer equation (Table 2).
# [6] = Cytotoxicity, MTT test, 72 h; details: human, NCTC-2544 keratinocytes (immortalized, nontumorigenic)
# [7] = read-out: % Cell survival UVA 20 J/cm^2
# [8] = read-out: % Cell survival UVB 0.5 J/cm^2
# [9] = read-out: % Cell survival UVB 1 J/cm^2
λ max [5],ɛ (molar extinction coefficient) [5],Compound,PCL [1],FRAP [2],DPPH [3],PCL of finished formulation [4],% Cell survival UVA 20 J/cm^2 (NCTC-2544 cells),% Cell survival UVB 0.5 J/cm^2 (NCTC-2544 cells),% Cell survival UVB 1 J/cm^2 (NCTC-2544 cells),phototoxic effect (cell survival vs irradiated control) (NCTC-2544 cells),IC50 at 72 h [6],viability at 20 µM (NCTC-2544 cells; [7]),viability at 20 µM (NCTC-2544 cells; [8]),viability at 20 µM (NCTC-2544 cells; [9]),viability at 50 µM (NCTC-2544 cells; [7]),viability at 50 µM (NCTC-2544 cells; [8]),viability at 50 µM (NCTC-2544 cells; [9]),cell survival in relation to the irradiated control (NCTC-2544 cells)
315 nm,14 000,"2-(2,4-Dihydroxy-phenyl)-1H-benzimidazole [Compound 9]",198.53 ± 2.65 μmolTrolox/mmol,37.3 ± 0.35 μmolTrolox/mmol,16.47 ± 0.54 μmolTrolox/mmol,8.66 ± 0.04 μmol Trolox/g formulation,3.7 ± 0.5%,1.1 ± 0.3%,0.5 ± 0.1%,–,–,–,–,–,–,–,–,–
308 nm,25 000,"O=S(=O)(O)c1ccc2[nH]c(-c3ccc(O)cc3)nc2c1 [Compound 2, 2-(4-Hydroxy-phenyl)-1H-benzimidazole-5-sulfonic acid]",11.36 ± 0.08 μmolTrolox/mmol,12.23 ± 0.25 μmolTrolox/mmol,2.04 ± 0.15 μmolTrolox/mmol,0.33 ± 0.03 μmol Trolox/g formulation,–,–,–,–,26.4 ± 2.7 µM,77.3 ± 2.8%,78 ± 3.5%,46.7 ± 3.4%,–,–,–,–
313 nm,23 000,"O=S(=O)(O)c1ccc2[nH]c(-c3ccc(O)c(O)c3)nc2c1 [Compound 3, 2-(3,4-Dihydroxy-phenyl)-1H-benzimidazole-5-sulfonic acid]","22,838 ± 836,26 μmolTrolox/mmol",2707.29 ± 29.52 μmolTrolox/mmol,2145.31 ± 45.8 μmolTrolox/mmol,2212.09 ± 68.35 μmol Trolox/g formulation,–,–,–,–,> 50 µM,–,–,–,77.4 ± 4%,71.5 ± 2.5%,58.1 ± 2.6%,doubled
315 nm,21 000,"O=S(=O)(O)c1ccc2[nH]c(-c3ccccc3O)nc2c1 [Compound 4, 2-(2-Hydroxy-phenyl)-1H-benzimidazole-5-sulfonic acid]",2.06 ± 0.05 μmolTrolox/mmol,16.22 ± 0.89 μmolTrolox/mmol,2.03 ± 0.09 μmolTrolox/mmol,0.06 ± 0.02 μmol Trolox/g formulation,–,–,–,–,> 50 µM,–,–,–,76.9 ± 2%,74.3 ± 3.2%,37.7 ± 1.7%,–
318 nm,23 000,"O=S(=O)(O)c1ccc2[nH]c(-c3ccc(O)cc3O)nc2c1 [Compound 5, 2-(2,4-Dihydroxy-phenyl)-1H-benzimidazole-5-sulfonic acid]",159.1 ± 4.3 μmolTrolox/mmol,19.87 ± 0.22 μmolTrolox/mmol,21.41 ± 043 μmolTrolox/mmol,0.95 ± 0.02 μmol Trolox/g formulation,–,–,–,–,> 50 µM,–,–,–,79 ± 6%,70.8 ± 3.9%,38.6 ± 3.7%,–
328 nm,22200 L/mol/cm,"O=S(=O)(O)c1ccc2[nH]c(-c3ccc(O)c(O)c3O)nc2c1 [Compound 6, 2-(2,3,4-Trihydroxy-phenyl)-1H-benzimidazole-5-sulfonic acid]",1924.35 ± 101.82 μmolTrolox/mmol,2713.3 ± 45.17 μmolTrolox/mmol,1362.12 ± 133.96 μmolTrolox/mmol,101.98 ± 1.08 μmol Trolox/g formulation,–,–,–,phototoxic effect,23.1 ± 2.9 µM,18.4 ± 2.3%,59.3 ± 3.4%,29.7 ± 2.1%,–,–,–,–
311 nm,16 000,"Oc1ccc(-c2nc3ccccc3[nH]2)cc1O [Compound 8, 2-(3,4-Dihydroxy-phenyl)-1H-benzimidazole]",19190.6 ± 443.18 μmolTrolox/mmol,2663.21 ± 32.53 μmolTrolox/mmol,1974.58 ± 16.89 μmolTrolox/mmol,2972.107 ± 145.63 μmol Trolox/g formulation,–,–,–,–,> 50 µM,–,–,–,62.9 ± 4.3%,72.8 ± 1%,43.9 ± 3.4%,–

Compound,λ max [5],ɛ (molar extinction coefficient) [5],PCL [1],FRAP [2],DPPH [3],PCL of finished formulation [4],% Cell survival UVA 20 J/cm^2 (NCTC-2544 cells),% Cell survival UVB 0.5 J/cm^2 (NCTC-2544 cells),% Cell survival UVB 1 J/cm^2 (NCTC-2544 cells),phototoxic effect (cell survival vs irradiated control) (NCTC-2544 cells),IC50 at 72 h [6],viability at 20 µM (NCTC-2544 cells; [7]),viability at 20 µM (NCTC-2544 cells; [8]),viability at 20 µM (NCTC-2544 cells; [9]),viability at 50 µM (NCTC-2544 cells; [7]),viability at 50 µM (NCTC-2544 cells; [8]),viability at 50 µM (NCTC-2544 cells; [9]),cell survival in relation to the irradiated control (NCTC-2544 cells)
2-(2-Hydroxy-phenyl)-1H-benzimidazole [Compound 10],315 nm,17 000,10.93 ± 0.05 μmolTrolox/mmol,23.04 ± 0.09 μmolTrolox/mmol,0.87 ± 0.05 μmolTrolox/mmol,0.5 ± 0.02 μmol Trolox/g formulation,4.8 ± 0.6%,19.8 ± 2.4%,3.5 ± 0.3%,phototoxic effect,–,–,–,–,–,–,–,–
"O=S(=O)(O)c1ccc2[nH]c(-c3ccccc3)nc2c1 [PBSA, 2-phenyl-1H-benzimidazole-5-sulfonic acid, reference compound]",302 nm,25 000,devoided of any activity; also recorded: < LOQ^a,–,devoided of any activity; also recorded: < LOQ^a,<LOQ^b,–,–,–,–,> 50 µM,–,–,–,74.5 ± 1.4%,75.2 ± 4.5%,64.2 ± 3.1%,doubled
